Consider 3 molecules from US20070281925A1, “USE OF SERTINDOLE FOR THE PREVENTIVE TREATMENT OF SUICIDAL BEHAVIOUR” (H. Lundbeck A/S, priority 2006, published 2007).

Data set [1] relates to patient population of clinical trials of atypical antipsychotics. The conditions noted are these: between sertindole, olanzapine and risperidone; cited from earlier work.
Data set [2] deals with patients with schizophrenia. Put plainly: Sertindole Cohort Prospective (SCoP) study: fatal or non-fatal suicide attempts, sertindole vs risperidone. The class given is in vivo, human. The following applies: for Committed or attempted suicide (rate/100 PYE): WRT period plus 30 days; for Hazard Ratio SERT as compared to RISP, committing or attempting suicide: Cox proportional hazards model adjusting for age, gender, history of suicide attempt, duration of schizophrenia; for Hazard ratio SERT/RISP, committed or attempted suicide: log-rank test, WRT plus 30 days. The text has this: The Sertindole Cohort Prospective (SCoP) study was designed as a multi-national, multi-centre, prospective, randomized, open-label, two parallel-group, active-controlled study in human subjects with schizophrenia. The objective of the study is to compare the safety of sertindole with the safety of another standard antipsychotic drug (in this case risperidone) under normal conditions of use. In addition, the study collects information on fatal or non-fatal suicide attempts. The study was initiated in 2002 and is still ongoing.
To ensure that the study population is representative of patients with schizophrenia, only a limited number of selection criteria are imposed. In particular, patients are required to fulfil the criteria specified in the SmPCs (Core Summary of Product Characteristics) for both sertindole and risperidone; they are not to have received either sertindole or risperidone as their treatment immediately before entering the study, and they require treatment with but a single anti-schizophrenia drug product.
The Sertindole Cohort Prospective (SCoP) study is a multinational, multi-centre, prospective, randomized, open-label, two parallel-group, active-controlled study in patients with schizophrenia. The objective of the study is to compare the safety of sertindole with the safety of another standard antipsychotic drug (in this case risperidone) under normal conditions of use. In addition, the study collects information on fatal or non-fatal suicide attempts. The study was initiated in 2002 and is still ongoing.
The data in the study are reported for different periods. The Only-Randomized-Treatment-Period (ORT) covers the time the patient is receiving antipsychotic monotherapy with the randomized trial medication. However, patients can also be treated in combination with another antipsychotic if this is clinically necessary. When the patient receives an additional antipsychotic, the patient is censored and the data are reported for the Whole-Randomized-Treatment period (WRT). The primary period for reporting is the so-called Whole-Randomized-Treatment+30 period (WRT+30), which covers the time during which the patient receives randomized treatment plus 30 days after treatment discontinuation. Finally, the period during which the patient is followed even after the treatment has been stopped is called the Whole-Follow-up-Period (WFP).
To ensure that the study population is representative of patients with schizophrenia, only a limited number of selection criteria are imposed. In particular, patients are required to fulfill the criteria specified in the SmPCs for both sertindole and risperidone; they are not to have received either sertindole or risperidone as their treatment immediately before entering the study, and they require treatment with but a single antipsychotic drug.
Throughout the treatment period patients are dosed according to the treatment recommendations in their respective SmPCs. […]
Regarding attempted suicide, the analysis comprised only those events for which the investigators confirmed that the patients actually tried to commit suicide. Events such as intentional overdose and intentional self-injury were clarified by the investigators and were not included in the analysis unless the investigators confirmed that they were real suicide attempts. The included events were coded as ‘suicide attempt’ in the database.
The above definition of attempted suicide has the advantage of making it possible combine this event with completed suicide and to analyze the time until either event occurs. This can be done since all patients are randomised to start new treatment with either sertindole or risperidone.
All events occurring in the Whole Randomised Treatment (WRT) period plus 30 days were considered for analysis, up until the data cut-off. The WRT period is the period from start to stop of randomised treatment. The null hypothesis of equality of hazards between treatment groups was tested using the log-rank test. […]

In data set [3] the test system is patients with schizophrenia. Description: Twelve-month open-label study of sertindole: time to sustained response. The data set is classed as in vivo, human. The following applies: 4-24 mg once daily for up to one year; 358 patients. The text has this: These findings are further corroborated by an exploratory analysis of clinical data obtained from a twelve-month open-label study ([…] et al., “Identification of Potential Predictors of Sertindole Response in Patients with Schizophrenia”, to be published). In line with the emerging consensus criteria for response to antipsychotic treatment in schizophrenia ([…] et al., Am J Psychiatry 162:441-449, March 2005), the objective of this exploratory analysis is to identify potential predictors of response to sertindole in patients with schizophrenia. The study assessed the safety and efficacy of sertindole doses (4-24 mg) administered once daily for up to one year in US patients with schizophrenia.

In data set [4] the test system is serotonin 5-HT2 receptors. The following applies: cited from earlier work.
For another data set, the target named is dopamine D2 receptors (Homo sapiens, UniProt P14416). The conditions noted are these: cited from earlier work.
In a further data set the test system is α1-adrenergic receptors. The conditions noted are these: cited from earlier work.
The test system of a further data set is histaminergic receptors. The conditions noted are these: cited from earlier work.
For a further data set, the system named is muscarinic receptors. The following applies: cited from earlier work.
A further data set concerns α2-adrenergic receptors. The following applies: cited from earlier work.
The subject of data set [5] is A9 dopamine neurons (the nigrostriatal pathway). The following applies: cited from earlier work.
Data set [6] relates to A10 neurons (the mesolimbic and mesocortical pathways). The conditions noted are these: cited from earlier work.
For data set [7] the following is noted: compared with haloperidol, fluphenazine and chlorpromazine; cited from earlier work.

Sequence of dopamine D2 receptors (P14416 whole entry): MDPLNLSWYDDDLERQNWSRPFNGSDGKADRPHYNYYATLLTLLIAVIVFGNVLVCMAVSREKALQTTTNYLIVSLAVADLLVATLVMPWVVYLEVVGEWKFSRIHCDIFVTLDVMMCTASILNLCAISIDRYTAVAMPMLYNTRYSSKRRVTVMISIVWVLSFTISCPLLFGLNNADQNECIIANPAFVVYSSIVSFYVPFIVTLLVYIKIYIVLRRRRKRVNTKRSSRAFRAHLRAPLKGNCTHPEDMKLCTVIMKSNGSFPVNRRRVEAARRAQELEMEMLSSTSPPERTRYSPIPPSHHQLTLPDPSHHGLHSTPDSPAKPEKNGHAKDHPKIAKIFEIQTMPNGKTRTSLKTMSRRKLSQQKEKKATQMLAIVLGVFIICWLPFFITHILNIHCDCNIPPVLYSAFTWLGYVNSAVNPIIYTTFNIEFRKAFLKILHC

As for `Cc1cc2c(s1)Nc1ccccc1N=C2N1CCN(C)CC1` [olanzapine], the “Short-term (450 days) hazard functions (mortality)” value (“Short-term” for short) in data set [1] was “no obvious difference”.

In the case of `Cc1nc2n(c(=O)c1CCN1CCC(c3noc4cc(F)ccc34)CC1)CCCC2` [risperidone], the “Event rate in risperidone group relative to sertindole group (times higher)” value in data set [2] (Cox proportional hazards model, data cut-off 11.1 2007) was “approximately 1.7 times”; in [2] (data cut-off 11.1 2007, unadjusted), about 1.5 times; in [2] (data up until 11 Jan. 2006), about 1.5 times. Further, the “Committed or attempted suicide (rate/100 PYE)” value in data set [2] (as of Nov. 1, 2006) is reported as 1.15 rate/100 PYE; in data set [2] (as of Nov. 1, 2007), 0.92 rate/100 PYE. Moreover, the “Short-term” value in data set [1] was “no obvious difference”.

`O=C1NCCN1CCN1CCC(c2cn(-c3ccc(F)cc3)c3ccc(Cl)cc23)CC1` [sertindole]: the “Hazard Ratio SERT as compared to RISP, committing or attempting suicide” value in data set [2] (as of Nov. 1, 2007) is given as “approximately 0.6”; in data set [2] (as of Nov. 1, 2007, listed as SERT), 0.614. Besides, the “Committed or attempted suicide (rate/100 PYE)” value in data set [2] (as of Nov. 1, 2006) was determined as 0.85 rate/100 PYE; in data set [2] (as of Nov. 1, 2007), 0.62 rate/100 PYE. The “Hazard ratio SERT/RISP, committed or attempted suicide” value was “approximately 0.7” in data set [2] (data cut-off 11.1 2007); 0.69 in data set [2] (data cut-off 11.1 2007, listed as SERT); “approximately 0.7” in data set [2] (data up until 11 Jan. 2006); 0.72 in data set [2] (data up until 11 Jan. 2006, listed as SERT). Besides, in data set [2] (schizophrenic patients on maintenance dose sertindole therapy), the “Incidence of suicide attempts (both fatal and non-fatal) in comparison with risperidone” value is reported as “reduced significantly”. In [3], the “Patients achieving sustained response (CGI-S<=3 and CGI-I<=2, sustained at least 8 weeks)” value was 125 patients. Also, the “Affinity for serotonin 5-HT2 receptors” value in data set [4] is listed as “high affinity”. For the same molecule, the “Affinity for dopamine D2 receptors” value at dopamine D2 receptors is on record as “high affinity”. Further, the “Affinity for α1-adrenergic receptors” value with α1-adrenergic receptors is “high affinity”. In the data set with histaminergic receptors, the “Binding to histaminergic receptors” value is reported as “limited binding”. In addition, the “Binding to muscarinic receptors” value in the data set with muscarinic receptors was “limited binding”. In the data set with α2-adrenergic receptors, the “Binding to α2-adrenergic receptors” value was “limited binding”. The “Depolarization inactivation in A9 dopamine neurons” value in [5] is listed as “does not induce depolarization inactivation”. The “Activity in A10 neurons” value in data set [6] was “retains activity”. In data set [1], the “Short-term” value is on record as “no obvious difference”. In addition, the Adverse effects entry in data set [7] is reported as “fewer adverse effects”.
